System: KRAS-mutant PDC complex spheroid viability
Test: Anticancer human tumor 186277-243-T-J2-PDC patient-derived colon adenocarcinoma cell line growth inhibition [KRAS2]
Details: for IC50: curve of first compound; for viability, T/C: stronger effect = lower value
Summary of the method: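 KRAS-mutant tumor cells were grown as spheroids with HUVEC endothelial cells and human MSCs as stroma. Targeted agents were tested alone and with KRAS pathway inhibitors. Doses started at or near clinical Cmax, or 10 microM, descending half-log.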

[1] = second compound 0.1 µM, first compound 0.0316 µM
[2] = second compound 0.1 µM, first compound 0.1 µM
[3] = second compound 0.1 µM, first compound 0.316 µM
[4] = second compound 0.1 µM, first compound 1 µM
[5] = second compound 0.1 µM, first compound 3.16 µM
[6] = second compound 0.316 µM, first compound 0.0316 µM
[7] = second compound 0.316 µM, first compound 0.1 µM
[8] = second compound 0.316 µM, first compound 0.316 µM
[9] = second compound 0.316 µM, first compound 1 µM
[10] = second compound 0.316 µM, first compound 3.16 µM
[11] = second compound 1 µM, first compound 0.0316 µM
[12] = second compound 1 µM, first compound 0.1 µM
[13] = second compound 1 µM, first compound 0.316 µM
[14] = second compound 1 µM, first compound 1 µM
[15] = second compound 1 µM, first compound 3.16 µM
[16] = second compound 3.16 µM, first compound 0.0316 µM
[17] = second compound 3.16 µM, first compound 0.1 µM
[18] = second compound 3.16 µM, first compound 0.316 µM
[19] = second compound 3.16 µM, first compound 1 µM
[20] = second compound 3.16 µM, first compound 3.16 µM
[21] = second compound 10 µM, first compound 0.0316 µM
[22] = second compound 10 µM, first compound 0.1 µM
[23] = second compound 10 µM, first compound 0.316 µM
[24] = second compound 10 µM, first compound 1 µM
[25] = second compound 10 µM, first compound 3.16 µM
[26] = second compound 0.1 µM, first compound 10 µM
[27] = second compound 0.316 µM, first compound 10 µM
[28] = second compound 1 µM, first compound 10 µM
[29] = second compound 3.16 µM, first compound 10 µM
[30] = second compound 10 µM, first compound 10 µM
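For viability, T/C in this document: viability read after seven days of compound exposure; 100% = DMSO vehicle-treated spheroids so lower means less viable.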

Compound	IC50 (second compound 0.1 µM) [nM]	IC50 (second compound 0.316 µM) [nM]	IC50 (second compound 1 µM) [nM]	IC50 (second compound 3.16 µM) [nM]	IC50 (second compound 10 µM) [nM]	viability, T/C [1] [%]	viability, T/C [2] [%]	viability, T/C [3] [%]	viability, T/C [4] [%]	viability, T/C [5] [%]	viability, T/C [6] [%]	viability, T/C [7] [%]	viability, T/C [8] [%]	viability, T/C [9] [%]	viability, T/C [10] [%]	viability, T/C [11] [%]	viability, T/C [12] [%]	viability, T/C [13] [%]	viability, T/C [14] [%]	viability, T/C [15] [%]	other results
CC(=O)OC12COC1CC(O)C1(C)C(=O)C(O)C3=C(C)C(OC(=O)C(O)C(NC(=O)OC(C)(C)C)c4ccccc4)CC(O)(C(OC(=O)c4ccccc4)C21)C3(C)C (stereo not given) + COc1cc2nc(C)nc(NC(C)c3cc(N)cc(C(F)(F)F)c3)c2cc1OC1CCOC1	< 10	< 10	< 10	< 10	< 10	5.2	2.78	2.85	2.91	3.62	3.35	2.81	2.36	2.72	2.69	4.27	3.44	3.47	3.46	2.96	viability, T/C (second compound 0.1 µM, first compound 0.01 µM): 4.45%; viability, T/C (second compound 0.316 µM, first compound 0.01 µM): 4.29%; viability, T/C (second compound 1 µM, first compound 0.01 µM): 3.08%; viability, T/C (second compound 3.16 µM, first compound 0.01 µM): 3.01%; viability, T/C [16]: 2.78%; viability, T/C [17]: 2.73%; viability, T/C [18]: 2.51%; viability, T/C [19]: 2.54%; viability, T/C [20]: 2.73%; viability, T/C (second compound 10 µM, first compound 0.01 µM): 3.2%; viability, T/C [21]: 3.03%; viability, T/C [22]: 2.84%; viability, T/C [23]: 3%; viability, T/C [24]: 2.42%; viability, T/C [25]: 2.82%
CC(C)NCC(C(=O)N1CCN(c2ncnc3c2C(C)CC3O)CC1)c1ccc(Cl)cc1 (stereo not given) + C=CC(=O)N1CCN(c2nc(=O)n(-c3c(C)ccnc3C(C)C)c3nc(-c4c(O)cccc4F)c(F)cc23)C(C)C1	615	650	636	271	51.3	102	99.5	63.7	37.5	27.9	106	93.6	63.2	41.1	23.9	109	103	66.5	36.7	26.3	viability, T/C [26]: 13.4%; viability, T/C [27]: 11.8%; viability, T/C [28]: 10.6%; viability, T/C [16]: 100%; viability, T/C [17]: 85.1%; viability, T/C [18]: 40.9%; viability, T/C [19]: 25.7%; viability, T/C [20]: 14.3%; viability, T/C [29]: 8.27%; viability, T/C [21]: 70.3%; viability, T/C [22]: 20.1%; viability, T/C [23]: 15.9%; viability, T/C [24]: 8.02%; viability, T/C [25]: 6.56%; viability, T/C [30]: 2.87%
COc1cc2nccc(Oc3ccc(NC(=O)C4(C(=O)Nc5ccc(F)cc5)CC4)cc3)c2cc1OC + C=CC(=O)N1CCN(c2nc(=O)n(-c3c(C)ccnc3C(C)C)c3nc(-c4c(O)cccc4F)c(F)cc23)C(C)C1	1880	1770	1320	823	101	95.2	94.8	100	93.7	13.1	93	85.5	98.2	86.1	12.3	98	92.4	101	61.8	12.4	viability, T/C [26]: 15.4%; viability, T/C [27]: 14%; viability, T/C [28]: 13.7%; viability, T/C [16]: 94.5%; viability, T/C [17]: 103%; viability, T/C [18]: 91.2%; viability, T/C [19]: 41.8%; viability, T/C [20]: 9.95%; viability, T/C [29]: 11.2%; viability, T/C [21]: 49.9%; viability, T/C [22]: 52.7%; viability, T/C [23]: 32.3%; viability, T/C [24]: 9.14%; viability, T/C [25]: 2.99%; viability, T/C [30]: 3.53%
